Source: PMC5218480 (PLoS ONE, 2017)

Test system: MV-4-11 cells
Assay: Gene expression microarray analysis (Affymetrix PrimeView) and GSEA
Type: cell-based, human
Set-up: RFU PODN (11730768_x_at) / Fold change /veh PODN (11730768_x_at) / RFU LINC00158 (11744669_a_at) / Fold change /veh LINC00158 (11744669_a_at) / RFU DUSP10 (11751237_a_at) / Fold change /veh DUSP10 (11751237_a_at) / RFU ID3 (11757404_x_at) / Fold change /veh ID3 (11757404_x_at) / RFU PLEKHG5 (11737974_s_at) / Fold change /veh PLEKHG5 (11737974_s_at) / RFU LRRC4B (11730491_at) / Fold change /veh LRRC4B (11730491_at) / RFU GIMAP4 (11747438_a_at) / Fold change /veh GIMAP4 (11747438_a_at) / RFU KRT8 (11758183_x_at) / Fold change /veh KRT8 (11758183_x_at) / RFU CNN1 (11734310_a_at) / Fold change /veh CNN1 (11734310_a_at) / RFU VPS37D (11726825_at) / Fold change /veh VPS37D (11726825_at) / RFU C10orf10 (11716522_x_at) / Fold change /veh C10orf10 (11716522_x_at) / RFU KIR2DL2 /// KIR2DL4 /// KIR2DL5A /// KIR2DL5B /// KIR2DS1 /// KIR2DS2 /// KIR2DS3 /// KIR2DS4 /// KIR3DL3 /// KIR3DL3 /// KIR3DS1 (11738374_at) / Fold change /veh KIR2DL2 /// KIR2DL4 /// KIR2DL5A /// KIR2DL5B /// KIR2DS1 /// KIR2DS2 /// KIR2DS3 /// KIR2DS4 /// KIR3DL3 /// KIR3DL3 /// KIR3DS1 (11738374_at) / RFU C1QL1 (11718748_at) / Fold change /veh C1QL1 (11718748_at) / RFU TMPRSS4 (11747572_a_at) / Fold change /veh TMPRSS4 (11747572_a_at) / RFU HAMP (11756126_x_at) / Fold change /veh HAMP (11756126_x_at) / RFU RNFT2 (11725882_a_at) / Fold change /veh RNFT2 (11725882_a_at) / RFU NR4A2 (11747474_a_at) / Fold change /veh NR4A2 (11747474_a_at) / RFU ABCC12 (11746883_a_at) / Fold change /veh ABCC12 (11746883_a_at) / RFU TMEM136 (11760407_x_at) / Fold change /veh TMEM136 (11760407_x_at) / RFU CLDN22 /// WWC2 (11732394_at) / Fold change /veh CLDN22 /// WWC2 (11732394_at) / RFU HLA-DPB1 (11760878_x_at) / Fold change /veh HLA-DPB1 (11760878_x_at) / RFU SPINT1 (11716480_a_at) / Fold change /veh SPINT1 (11716480_a_at) / RFU GAP43 (11754022_s_at) / Fold change /veh GAP43 (11754022_s_at) / RFU A4GNT (11735810_at) / Fold change /veh A4GNT (11735810_at) / RFU PRB3 (11715151_x_at) / Fold change /veh PRB3 (11715151_x_at) / RFU TUBB4B (11761932_at) / Fold change /veh TUBB4B (11761932_at) / RFU CAPN14 (11732068_a_at) / Fold change /veh CAPN14 (11732068_a_at) / RFU TMCC2 (11721928_a_at) / Fold change /veh TMCC2 (11721928_a_at) / RFU IRGQ (11745062_a_at) / Fold change /veh IRGQ (11745062_a_at) / RFU FAM174B (11720279_a_at) / Fold change /veh FAM174B (11720279_a_at) / RFU TMPRSS4 (11748680_a_at) / Fold change /veh TMPRSS4 (11748680_a_at) / RFU FAM212B (11763350_a_at) / Fold change /veh FAM212B (11763350_a_at) / RFU PLEKHG5 (11743358_a_at) / Fold change /veh PLEKHG5 (11743358_a_at) / RFU ZSCAN30 (11745921_a_at) / Fold change /veh ZSCAN30 (11745921_a_at) / RFU CMKLR1 (11741424_a_at) / Fold change /veh CMKLR1 (11741424_a_at) / RFU LOC101060620 /// MAPK8IP1 (11723275_at) / Fold change /veh LOC101060620 /// MAPK8IP1 (11723275_at) / RFU SPTSSB (11747773_x_at) / Fold change /veh SPTSSB (11747773_x_at) / RFU PRSS12 (11739890_at) / Fold change /veh PRSS12 (11739890_at) / RFU BIN1 (11741810_x_at) / Fold change /veh BIN1 (11741810_x_at) / RFU WNT11 (11732464_a_at) / Fold change /veh WNT11 (11732464_a_at) / RFU C10orf10 (11716521_a_at) / Fold change /veh C10orf10 (11716521_a_at) / RFU C5orf56 (11738089_at) / Fold change /veh C5orf56 (11738089_at) / RFU CYB561 (11721691_x_at) / Fold change /veh CYB561 (11721691_x_at) / RFU ANKRD19P (11752326_a_at) / Fold change /veh ANKRD19P (11752326_a_at) / RFU OR2T12 /// OR2T33 /// OR2T8 (11738714_s_at) / Fold change /veh OR2T12 /// OR2T33 /// OR2T8 (11738714_s_at) / RFU VCAN (11748164_a_at) / Fold change /veh VCAN (11748164_a_at) / RFU JSRP1 (11732532_at) / Fold change /veh JSRP1 (11732532_at) / RFU KRTAP10-11 (11738290_x_at) / Fold change /veh KRTAP10-11 (11738290_x_at) / RFU MYO3A (11730013_a_at) / Fold change /veh MYO3A (11730013_a_at) / RFU EBF3 (11725865_a_at) / Fold change /veh EBF3 (11725865_a_at) / RFU CAMK2N1 (11719241_x_at) / Fold change /veh CAMK2N1 (11719241_x_at) / RFU C5orf56 (11738088_a_at) / Fold change /veh C5orf56 (11738088_a_at) / RFU OLFML3 (11715873_a_at) / Fold change /veh OLFML3 (11715873_a_at) / RFU LOC100653217 /// NTM (11731650_a_at) / Fold change /veh LOC100653217 /// NTM (11731650_a_at) / RFU MAPK11 (11762145_a_at) / Fold change /veh MAPK11 (11762145_a_at) / RFU FIZ1 (11724087_x_at) / Fold change /veh FIZ1 (11724087_x_at) / RFU OASL (11726364_x_at) / Fold change /veh OASL (11726364_x_at) / RFU SOX15 (11748057_x_at) / Fold change /veh SOX15 (11748057_x_at) / RFU CD79A (11719716_a_at) / Fold change /veh CD79A (11719716_a_at) / RFU HIST1H1D (11736915_at) / Fold change /veh HIST1H1D (11736915_at) / RFU CASKIN2 (11723855_a_at) / Fold change /veh CASKIN2 (11723855_a_at) / RFU LOC730098 (11760151_x_at) / Fold change /veh LOC730098 (11760151_x_at) / RFU OR4N2 (11742367_at) / Fold change /veh OR4N2 (11742367_at) / RFU PRRT2 (11749266_a_at) / Fold change /veh PRRT2 (11749266_a_at) / RFU SNX32 (11753110_a_at) / Fold change /veh SNX32 (11753110_a_at) / RFU CDHR5 (11726645_a_at) / Fold change /veh CDHR5 (11726645_a_at) / RFU RCAN1 (11760418_a_at) / Fold change /veh RCAN1 (11760418_a_at) / RFU FAM167A (11723789_a_at) / Fold change /veh FAM167A (11723789_a_at) / RFU FAM26E (11764081_at) / Fold change /veh FAM26E (11764081_at) / RFU ISYNA1 (11749810_s_at) / Fold change /veh ISYNA1 (11749810_s_at) / RFU ACY1 (11761880_at) / Fold change /veh ACY1 (11761880_at) / RFU 11764098_at / Fold change /veh 11764098_at / RFU SAMD14 (11745864_x_at) / Fold change /veh SAMD14 (11745864_x_at) / RFU NPB (11741838_a_at) / Fold change /veh NPB (11741838_a_at) / RFU TMPRSS6 (11731388_a_at) / Fold change /veh TMPRSS6 (11731388_a_at) / RFU KRTAP10-2 (11738614_at) / Fold change /veh KRTAP10-2 (11738614_at) / RFU ARHGAP8 /// PRR5-ARHGAP8 (11727945_x_at) / Fold change /veh ARHGAP8 /// PRR5-ARHGAP8 (11727945_x_at) / RFU KRTAP5-7 /// NADSYN1 (11734609_at) / Fold change /veh KRTAP5-7 /// NADSYN1 (11734609_at) / RFU RASL12 (11751679_a_at) / Fold change /veh RASL12 (11751679_a_at) / RFU CDKN2B (11736163_a_at) / Fold change /veh CDKN2B (11736163_a_at) / RFU PRF1 (11729649_at) / Fold change /veh PRF1 (11729649_at) / RFU, ZNF638 /// ZNF638-IT1 / Fold change vs veh, ZNF638 /// ZNF638-IT1 / RFU, PANK3 / Fold change vs veh, PANK3 / RFU, SH3YL1 / Fold change vs veh, SH3YL1 / RFU, ZEB2 / Fold change vs veh, ZEB2 / RFU, NRIP1 / Fold change vs veh, NRIP1 / RFU, PTTG1IP / Fold change vs veh, PTTG1IP / RFU, CAPN2 / Fold change vs veh, CAPN2 / RFU, MED14 / Fold change vs veh, MED14 / RFU, SNORA58 / Fold change vs veh, SNORA58 / RFU, C1orf63 / Fold change vs veh, C1orf63 / RFU, LRRFIP1 / Fold change vs veh, LRRFIP1 / RFU, NDUFAF7 / Fold change vs veh, NDUFAF7 / RFU, SLC12A2 / Fold change vs veh, SLC12A2 / RFU, IBTK / Fold change vs veh, IBTK / RFU, ESF1 / Fold change vs veh, ESF1 / Fold change vs veh, TMEM50B / RFU, TAOK1 / Fold change vs veh, TAOK1 / RFU, ACBD3 / Fold change vs veh, ACBD3 / RFU, TMA16 / Fold change vs veh, TMA16 / RFU, RWDD3 / Fold change vs veh, RWDD3 / RFU, BCAT1 / Fold change vs veh, BCAT1 / RFU, EDEM3 / Fold change vs veh, EDEM3 / RFU, TMEM33 / Fold change vs veh, TMEM33 / RFU, WDR75 / Fold change vs veh, WDR75 / RFU, AHCTF1 / Fold change vs veh, AHCTF1 / RFU, TFRC / Fold change vs veh, TFRC / RFU, ZDHHC17 / Fold change vs veh, ZDHHC17 / RFU, NOM1 / Fold change vs veh, NOM1 / RFU, ARL8B / Fold change vs veh, ARL8B / RFU, ZBTB11 / Fold change vs veh, ZBTB11 / RFU, TAMM41 / Fold change vs veh, TAMM41 / RFU, KIAA1704 /// LOC100996395 / Fold change vs veh, KIAA1704 /// LOC100996395 / RFU, ING1 / Fold change vs veh, ING1 / RFU, TRMT61B / Fold change vs veh, TRMT61B / RFU, FUBP3 / Fold change vs veh, FUBP3 / RFU, TP53 / Fold change vs veh, TP53 / RFU, TNKS2 / Fold change vs veh, TNKS2 / RFU, ZFP14 / Fold change vs veh, ZFP14 / RFU, ACTR2 / Fold change vs veh, ACTR2 / RFU, PPP3R1 / Fold change vs veh, PPP3R1 / RFU, PIK3R1 / Fold change vs veh, PIK3R1 / RFU, HNRNPA1 / Fold change vs veh, HNRNPA1 / RFU, RNF170 / Fold change vs veh, RNF170 / RFU, ZNF28 / Fold change vs veh, ZNF28 / RFU, RNGTT / Fold change vs veh, RNGTT / RFU, OGT / Fold change vs veh, OGT / RFU, BRD1 / Fold change vs veh, BRD1 / RFU, MARS / Fold change vs veh, MARS / RFU, ZNF655 / Fold change vs veh, ZNF655 / RFU, FAHD1 / Fold change vs veh, FAHD1 / RFU, BDP1 / Fold change vs veh, BDP1 / RFU, LRRCC1 / Fold change vs veh, LRRCC1 / RFU, ARID1A / Fold change vs veh, ARID1A / RFU, ZNF146 / Fold change vs veh, ZNF146 / RFU, ZNF330 / Fold change vs veh, ZNF330 / RFU, GPN3 / Fold change vs veh, GPN3 / RFU, C9orf123 / Fold change vs veh, C9orf123 / RFU, N4BP2L2 / Fold change vs veh, N4BP2L2 / RFU, ARFIP1 / Fold change vs veh, ARFIP1 / RFU, FAM179B / Fold change vs veh, FAM179B / RFU, BCL10 / Fold change vs veh, BCL10 / RFU, UHRF1BP1L / Fold change vs veh, UHRF1BP1L / RFU, BET1 / Fold change vs veh, BET1 / RFU, CNOT2 / Fold change vs veh, CNOT2 / RFU, ZNF268 / Fold change vs veh, ZNF268 / Fold change vs veh, ZNF507 / RFU, DGCR2 / Fold change vs veh, DGCR2 / RFU, WDSUB1 / Fold change vs veh, WDSUB1 / Fold change vs veh, HSP90B1 /// MIR3652 / RFU, ADSS / Fold change vs veh, ADSS / RFU, GK / Fold change vs veh, GK / RFU, ZNF148 / Fold change vs veh, ZNF148 / RFU, TAF9 / Fold change vs veh, TAF9 / RFU, SLC1A5 / Fold change vs veh, SLC1A5 / RFU, SLMO2 / Fold change vs veh, SLMO2 / RFU, ABCC4 / Fold change vs veh, ABCC4 / RFU, LOC101060439 /// RAP1B / Fold change vs veh, LOC101060439 /// RAP1B / RFU, RFX7 / Fold change vs veh, RFX7 / RFU, GTPBP10 / Fold change vs veh, GTPBP10 / RFU, CNEP1R1 / Fold change vs veh, CNEP1R1 / RFU, BIVM-ERCC5 /// ERCC5 / Fold change vs veh, BIVM-ERCC5 /// ERCC5 / RFU, ILF3 / Fold change vs veh, ILF3 / RFU 11762660_at / Fold change /veh 11762660_at / RFU VCAN (11757783_s_at) / Fold change /veh VCAN (11757783_s_at) / RFU DDX43 (11728927_at) / Fold change /veh DDX43 (11728927_at) / RFU KRT8 (11758188_x_at) / Fold change /veh KRT8 (11758188_x_at) / RFU NKD1 (11759106_at) / Fold change /veh NKD1 (11759106_at) / RFU SRD5A1 (11742802_a_at) / Fold change /veh SRD5A1 (11742802_a_at) / RFU TPSAB1 /// TPSB2 (11721975_s_at) / Fold change /veh TPSAB1 /// TPSB2 (11721975_s_at) / RFU GSTM3 (11746129_a_at) / Fold change /veh GSTM3 (11746129_a_at) / RFU IL23R (11737362_x_at) / Fold change /veh IL23R (11737362_x_at) / RFU TMEM51 (11727254_a_at) / Fold change /veh TMEM51 (11727254_a_at) / RFU PIWIL2 (11732686_x_at) / Fold change /veh PIWIL2 (11732686_x_at) / RFU ORM1 (11744905_x_at) / Fold change /veh ORM1 (11744905_x_at) / RFU CCDC152 (11743942_at) / Fold change /veh CCDC152 (11743942_at) / RFU ECM1 (11717891_a_at) / Fold change /veh ECM1 (11717891_a_at) / RFU IL23R (11748794_a_at) / Fold change /veh IL23R (11748794_a_at) / RFU TNFAIP8L3 (11732012_x_at) / Fold change /veh TNFAIP8L3 (11732012_x_at) / RFU MBOAT4 (11741988_at) / Fold change /veh MBOAT4 (11741988_at) / RFU 11764193_at / Fold change /veh 11764193_at / RFU TMEM53 (11763286_at) / Fold change /veh TMEM53 (11763286_at) / RFU MAGEB2 (11727129_at) / Fold change /veh MAGEB2 (11727129_at) / RFU TMEM200A (11744735_a_at) / Fold change /veh TMEM200A (11744735_a_at) / RFU CCDC152 (11751479_a_at) / Fold change /veh CCDC152 (11751479_a_at) / RFU FAM211A (11726209_a_at) / Fold change /veh FAM211A (11726209_a_at) / RFU RGS16 (11746705_a_at) / Fold change /veh RGS16 (11746705_a_at) / RFU VCAN (11755009_s_at) / Fold change /veh VCAN (11755009_s_at) / RFU RHOB (11743442_s_at) / Fold change /veh RHOB (11743442_s_at) / RFU RGS16 (11720943_a_at) / Fold change /veh RGS16 (11720943_a_at) / RFU RGS16 (11720944_at) / Fold change /veh RGS16 (11720944_at) / RFU, VPS4B / Fold change vs veh, VPS4B / RFU, CREB1 / Fold change vs veh, CREB1 / RFU, DNAJC13 / Fold change vs veh, DNAJC13 / RFU, GNAQ / Fold change vs veh, GNAQ / RFU, CDK5R1 / Fold change vs veh, CDK5R1 / RFU, ZRANB3 / Fold change vs veh, ZRANB3 / RFU, CUL4A / Fold change vs veh, CUL4A / RFU, CCNY / Fold change vs veh, CCNY / RFU, UFL1 / Fold change vs veh, UFL1 / RFU, COG3 / Fold change vs veh, COG3 / RFU, DIAPH2 / Fold change vs veh, DIAPH2 / RFU, SKA2 / Fold change vs veh, SKA2 / RFU, AFF3 / Fold change vs veh, AFF3 / RFU, LMF1 / Fold change vs veh, LMF1 / RFU, IPO11 / Fold change vs veh, IPO11 / RFU, DFFB / Fold change vs veh, DFFB / RFU, FOXP1 / Fold change vs veh, FOXP1 / RFU, CARD8 / Fold change vs veh, CARD8 / RFU, STRN3 / Fold change vs veh, STRN3 / RFU, ADK / Fold change vs veh, ADK / RFU, RASSF2 / Fold change vs veh, RASSF2 / RFU, WIPF1 / Fold change vs veh, WIPF1 / RFU, LARP1B / Fold change vs veh, LARP1B / RFU, RASA1 / Fold change vs veh, RASA1 / RFU, RB1 / Fold change vs veh, RB1 / RFU, PPFIA1 / Fold change vs veh, PPFIA1 / RFU, MAT2A / Fold change vs veh, MAT2A / RFU, CCT5 / Fold change vs veh, CCT5 / RFU, WDR92 / Fold change vs veh, WDR92 / RFU, CUX1 / Fold change vs veh, CUX1 / RFU, TTC7A / Fold change vs veh, TTC7A / RFU, TMEM135 / Fold change vs veh, TMEM135 / RFU, DEPTOR / Fold change vs veh, DEPTOR / RFU, CPM / Fold change vs veh, CPM / RFU, DNAJB6 / Fold change vs veh, DNAJB6 / RFU, CACNA2D3 / Fold change vs veh, CACNA2D3 / RFU, DTX4 / Fold change vs veh, DTX4 / RFU, TFCP2 / Fold change vs veh, TFCP2 / RFU, GMCL1 /// GMCL1P1 / Fold change vs veh, GMCL1 /// GMCL1P1 / RFU, AEBP2 / Fold change vs veh, AEBP2 / RFU, SNHG1 /// SNORD22 /// SNORD25 /// SNORD26 /// SNORD27 /// SNORD28 /// SNORD29 /// SNORD31 / Fold change vs veh, SNHG1 /// SNORD22 /// SNORD25 /// SNORD26 /// SNORD27 /// SNORD28 /// SNORD29 /// SNORD31 / Fold change (Aza/veh), C12orf56 (ProbeSet 11735607_a_at) / Fold change (ACY-1035/veh), C12orf56 (ProbeSet 11735607_a_at) / Fold change (Aza/veh), FGFR1OP (ProbeSet 11751329_s_at) / Fold change (ACY-1035/veh), FGFR1OP (ProbeSet 11751329_s_at) / Fold change (Aza/veh), VPS36 (ProbeSet 11739960_a_at) / Fold change (ACY-1035/veh), VPS36 (ProbeSet 11739960_a_at) / RFU SYPL1 (11715823_x_at) / Fold change /veh SYPL1 (11715823_x_at) / RFU IGFBP7 (11715501_s_at) / Fold change /veh IGFBP7 (11715501_s_at) / RFU REEP3 (11722064_at) / Fold change /veh REEP3 (11722064_at) / RFU IGLL1 (11728026_x_at) / Fold change /veh IGLL1 (11728026_x_at): dose or concentration left out as unconfirmed
Settings: ProbeSet 11728879_at; LIST B

Structure (SMILES): Nc1ccc(-c2cccs2)cc1NC(=O)c1ccc2c(c1)cc(C1CC1)n2CCN1CCOCC1 [ACY-1035]
- Fold change vs veh, PPP3R1: 0.99
